Drawing on patent US20260327191A1, “GSK3a INHIBITORS AND METHODS OF USE THEREOF” (Blueprint Medicines Corporation, priority 2023, published 2026), this text covers IC50 for 17 molecules.

One assay addresses T1, human GSK3α (Homo sapiens, UniProt P49840).
T1 construct: Full length human GSK3α or GSK3B expressed as N-terminal GST fusion proteins; GST (N); purchased Carna Biosciences (Japan); host or cells: baculovirus host
The experiment in a line: In vitro enzymatic activity assay, GSK3α. Format: biochemical. Conditions: 1.0 mM ATP, 1.0 μM peptide substrate, 120 min, 25° C, read-out: Enzyme GSK3α (IC50).

In a further assay the target is T2, GSK3A (Homo sapiens, UniProt P49840).
T2 construct: expressed in transfected cells
T2 sequence (P49840 whole entry): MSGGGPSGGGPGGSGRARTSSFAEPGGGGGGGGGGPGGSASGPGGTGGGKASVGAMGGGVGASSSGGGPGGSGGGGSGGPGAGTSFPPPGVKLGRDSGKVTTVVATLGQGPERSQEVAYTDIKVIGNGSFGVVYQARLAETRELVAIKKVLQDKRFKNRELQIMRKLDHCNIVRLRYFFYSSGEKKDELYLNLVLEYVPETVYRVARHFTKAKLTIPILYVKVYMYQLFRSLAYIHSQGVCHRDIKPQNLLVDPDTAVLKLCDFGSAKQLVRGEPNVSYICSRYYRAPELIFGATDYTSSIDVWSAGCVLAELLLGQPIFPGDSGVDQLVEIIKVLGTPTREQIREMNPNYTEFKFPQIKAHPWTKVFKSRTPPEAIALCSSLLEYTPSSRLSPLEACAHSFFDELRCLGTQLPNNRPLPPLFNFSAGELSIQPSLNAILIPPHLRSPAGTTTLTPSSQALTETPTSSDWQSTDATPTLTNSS
In words: NanoBRET cellular target engagement assay, Nanoluc-GSK3A in HEK293 cells. Type of assay: cell-based. Conditions: NanoBRET GSK3α IC50, HEK293 cells, tracer K-8, 2 hours, 37° C. In general terms: BRET reads energy transfer from a luciferase to a nearby fluorophore.

The target in assay [1] is T3, GSK3B (Homo sapiens, UniProt P49841). In words: NanoBRET cellular target engagement assay, Nanoluc-GSK3B in HEK293 cells. Format: cell-based. Also on record: expressed in transfected cells. Conditions: NanoBRET GSK3β IC50, HEK293 cells, tracer K-8, 2 hours, 37° C.
T3 sequence (P49841 whole entry, the tested form may be a part): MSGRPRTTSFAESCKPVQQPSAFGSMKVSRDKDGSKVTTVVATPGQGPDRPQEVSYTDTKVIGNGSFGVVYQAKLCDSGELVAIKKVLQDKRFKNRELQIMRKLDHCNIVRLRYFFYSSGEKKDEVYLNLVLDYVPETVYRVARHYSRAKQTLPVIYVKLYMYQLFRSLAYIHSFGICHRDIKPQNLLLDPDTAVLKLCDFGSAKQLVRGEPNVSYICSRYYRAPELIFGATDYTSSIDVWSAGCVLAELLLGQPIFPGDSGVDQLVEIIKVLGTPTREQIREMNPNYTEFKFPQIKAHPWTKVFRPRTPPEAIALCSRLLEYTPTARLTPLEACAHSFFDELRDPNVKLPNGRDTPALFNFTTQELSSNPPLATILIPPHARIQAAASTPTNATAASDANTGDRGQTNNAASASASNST
Assay [2] deals with T3, GSK3B. The experiment in a line: In vitro enzymatic activity assay, GSK3β. Type of assay: biochemical. Also on record: Full length human GSK3α or GSK3B expressed as N-terminal GST fusion proteins; GST (N); purchased Carna Biosciences (Japan); host or cells: baculovirus host. The conditions noted are these: 1.0 mM ATP, 1.0 μM peptide substrate, 120 min, 25° C, read-out: Enzyme GSK3β (IC50).

T1 sequence (P49840 whole entry, the tested form may be a part): as the sequence (P49840 whole entry) above

Turning to `Cc1cc(Cl)c(-n2cnc(N)c(C(=O)Nc3cncc([C@@H]4CCCN4)c3)c2=O)c(Cl)c1` [Example 45, (S)-4-amino-1-(2,6-dichloro-4-methylphenyl)-6-oxo-N-(5-(pyrrolidin-2-yl)pyridin-3-yl)-1,6-dihydropyrimidine-5-carboxamide], the IC50 – broadly, the point on the concentration scale where inhibition reaches its midpoint – on human GSK3α was 8.5 nM; at GSK3A, 6.6 nM; against GSK3B [1] it was 365 nM; on GSK3B [2], 384 nM.

As for `COCc1cc(C)c(-n2cnc(N)c(C(=O)Nc3cncc(C4CCCCCN4)c3)c2=O)c(C)c1` (single isomer, unassigned) [Example 100, (R)-4-amino-N-(5-(azepan-2-yl)pyridin-3-yl)-1-(4-(methoxymethyl)-2,6-dimethylphenyl)-6-oxo-1,6-dihydropyrimidine-5-carboxamide or (S)-4-amino-N-(5-(azepan-2-yl)pyridin-3-yl)-1-(4-(methoxymethyl)-2,6-dimethylphenyl)-6-oxo-1,6-dihydropyrimidine-5-carboxamide], the IC50 at human GSK3α was 8.2 nM; against GSK3A it was 3.9 nM; against GSK3B [1] it was 293 nM; on GSK3B [2], 348 nM.

Consider `Cc1cc(C)c(-n2cnc(N)c(C(=O)Nc3cncc(C4CCCCCN4)c3)c2=O)c(C)c1` (single isomer, unassigned) [Example 146, (R)-4-amino-N-(5-(azepan-2-yl)pyridin-3-yl)-1-mesityl-6-oxo-1,6-dihydropyrimidine-5-carboxamide or (S)-4-amino-N-(5-(azepan-2-yl)pyridin-3-yl)-1-mesityl-6-oxo-1,6-dihydropyrimidine-5-carboxamide], for which the IC50 on human GSK3α was 7.7 nM; on GSK3A it was 3.7 nM; against GSK3B [1] it was 340 nM; on GSK3B [2], 355 nM.

For the molecule `Nc1ncn(-c2c(Cl)cccc2Cl)c(=O)c1C(=O)Nc1cccc([C@H]2CC[C@H](CO)N2)c1` (single isomer, unassigned) [Example 191, 4-amino-1-(2,6-dichlorophenyl)-N-(3-((2R,5R)-5-(hydroxymethyl)pyrrolidin-2-yl)phenyl)-6-oxo-1,6-dihydropyrimidine-5-carboxamide or 4-amino-1-(2,6-dichlorophenyl)-N-(3-((2S,5S)-5-(hydroxymethyl)pyrrolidin-2-yl)phenyl)-6-oxo-1,6-dihydropyrimidine-5-carboxamide], the IC50 came to 5.7 nM at human GSK3α, 4.7 nM against GSK3A, 304 nM against GSK3B [1] and 230 nM at GSK3B [2].

Take `Cc1cc(C)c(-n2cnc(N)c(C(=O)Nc3cncc([C@H]4CCCCN4)c3)c2=O)c(C)c1` [Example 145, (R)-4-amino-1-mesityl-6-oxo-N-(5-(piperidin-2-yl)pyridin-3-yl)-1,6-dihydropyrimidine-5-carboxamide]: the IC50 was 3 nM at human GSK3α, 1 nM on GSK3A, 96.2 nM on GSK3B [1] and 129 nM at GSK3B [2].

`COCc1cc(C)c(-n2cnc(N)c(C(=O)Nc3cncc(C4CCC(C)N4)c3)c2=O)c(C)c1` (single isomer, unassigned) [Example 101]: the half-inhibitory concentration (IC50) at human GSK3α worked out at 19.6 nM; at GSK3A, 7.8 nM; against GSK3B [1], 800 nM; on GSK3B [2], 941 nM.

For `COCc1cc(C)c(-n2cnc(N)c(C(=O)Nc3cncc4c3CCC4(C)N)c2=O)c(C)c1` (single isomer, unassigned) [Example 27, (R)-4-amino-N-(7-amino-7-methyl-6,7-dihydro-5H-cyclopenta[c]pyridin-4-yl)-1-(4-(methoxymethyl)-2,6-dimethylphenyl)-6-oxo-1,6-dihydropyrimidine-5-carboxamide or (S)-4-amino-N-(7-amino-7-methyl-6,7-dihydro-5H-cyclopenta[c]pyridin-4-yl)-1-(4-(methoxymethyl)-2,6-dimethylphenyl)-6-oxo-1,6-dihydropyrimidine-5-carboxamide], the IC50 was found to be 2.4 nM on human GSK3α, 1.7 nM at GSK3A, 42.5 nM at GSK3B [1] and 54.2 nM on GSK3B [2].

Regarding `COCc1cc(Cl)c(-n2cnc(N)c(C(=O)Nc3cncc([C@@H]4CCCCN4)c3)c2=O)c(Cl)c1` [Example 61, (S)-4-amino-1-(2,6-dichloro-4-(methoxymethyl)phenyl)-6-oxo-N-(5-(piperidin-2-yl)pyridin-3-yl)-1,6-dihydropyrimidine-5-carboxamide], the IC50 turned out to be 6.4 nM on human GSK3α, 3.7 nM at GSK3A, 284 nM at GSK3B [1] and 466 nM on GSK3B [2].

On to `COC[C@@H](N)c1cncc(NC(=O)c2c(N)ncn(-c3c(Cl)cc(C#N)cc3Cl)c2=O)c1` (single isomer, unassigned) [Example 44, (S)-4-amino-N-(5-(1-amino-2-methoxyethyl)pyridin-3-yl)-1-(2,6-dichloro-4-cyanophenyl)-6-oxo-1,6-dihydropyrimidine-5-carboxamide or (R)-4-amino-N-(5-(1-amino-2-methoxyethyl)pyridin-3-yl)-1-(2,6-dichloro-4-cyanophenyl)-6-oxo-1,6-dihydropyrimidine-5-carboxamide], for which the IC50 at human GSK3α was 4.7 nM; at GSK3A, 7.6 nM; on GSK3B [1] it was 518 nM; at GSK3B [2], 382 nM.

Take `Nc1ncn(-c2c(Cl)cc(OC(F)(F)F)cc2Cl)c(=O)c1C(=O)Nc1cncc([C@@H]2CCCN2)c1` [Example 109, (S)-4-amino-1-(2,6-dichloro-4-(trifluoromethoxy)phenyl)-6-oxo-N-(5-(pyrrolidin-2-yl)pyridin-3-yl)-1,6-dihydropyrimidine-5-carboxamide]: the IC50 at human GSK3α stood at 15.6 nM; at GSK3A, 8.4 nM; against GSK3B [1], 567 nM; on GSK3B [2] it was 803 nM.

Take `COc1cc(Cl)c(-n2cnc(N)c(C(=O)Nc3cncc(C4(N)CC4)c3)c2=O)c(Cl)c1` [Example 181, 4-amino-N-(5-(1-aminocyclopropyl)pyridin-3-yl)-1-(2,6-dichloro-4-methoxyphenyl)-6-oxo-1,6-dihydropyrimidine-5-carboxamide]: the IC50 at human GSK3α came out at 7.9 nM; against GSK3A, 7 nM; at GSK3B [1] it was 491 nM; on GSK3B [2], 536 nM.

As to `CCOc1cc(Cl)c(-n2cnc(N)c(C(=O)Nc3cnnc(C(N)=O)c3)c2=O)c(Cl)c1` [Example 28, 5-(4-amino-1-(2,6-dichloro-4-ethoxyphenyl)-6-oxo-1,6-dihydropyrimidine-5-carboxamido)pyridazine-3-carboxamide], the IC50 at human GSK3α came to 9.6 nM; against GSK3A, 9 nM; at GSK3B [1] it was 699 nM; on GSK3B [2], 320 nM.

`Cc1cc(C(F)CF)cc(C)c1-n1cnc(N)c(C(=O)Nc2cncc([C@H]3CCCCN3)c2)c1=O` (single isomer, unassigned) [Example 113, 4-amino-1-(4-((R)-1,2-difluoroethyl)-2,6-dimethylphenyl)-6-oxo-N-(5-((R)-piperidin-2-yl)pyridin-3-yl)-1,6-dihydropyrimidine-5-carboxamide or 4-amino-1-(4-((S)-1,2-difluoroethyl)-2,6-dimethylphenyl)-6-oxo-N-(5-((R)-piperidin-2-yl)pyridin-3-yl)-1,6-dihydropyrimidine-5-carboxamide]: the IC50 at human GSK3α was found to be 3 nM; against GSK3A, 1.7 nM; on GSK3B [1], 107 nM; on GSK3B [2], 133 nM.

In the case of `CCNCc1cncc(NC(=O)c2c(N)ncn(-c3c(Cl)cccc3Cl)c2=O)c1` [Example 5, 4-amino-1-(2,6-dichlorophenyl)-N-(5-((ethylamino)methyl)pyridin-3-yl)-6-oxo-1,6-dihydropyrimidine-5-carboxamide], the IC50 was determined as 8.3 nM on human GSK3α, 6.2 nM against GSK3A, 383 nM on GSK3B [1] and 378 nM on GSK3B [2].

In the case of `Nc1ncn(-c2c(Cl)cc(C(F)(F)F)cc2Cl)c(=O)c1C(=O)Nc1cncc([C@@H]2CCCCN2)c1` [Example 119, (S)-4-amino-1-(2,6-dichloro-4-(trifluoromethyl)phenyl)-6-oxo-N-(5-(piperidin-2-yl)pyridin-3-yl)-1,6-dihydropyrimidine-5-carboxamide], the IC50 on human GSK3α is 8.1 nM; on GSK3A, 8.1 nM; against GSK3B [1], 502 nM; on GSK3B [2] it was 414 nM.

Take `COc1cc(Cl)c(-n2cnc(N)c(C(=O)Nc3cncc([C@H]4CCC[C@H](C)N4)c3)c2=O)c(Cl)c1` (single isomer, unassigned) [Example 81]: the IC50 on human GSK3α came to 5.9 nM; at GSK3A it was 2.3 nM; at GSK3B [1] it was 117 nM; at GSK3B [2], 314 nM.

`C#CCC(N)c1cncc(NC(=O)c2c(N)ncn(-c3c(Cl)cc(OCC)cc3Cl)c2=O)c1` (single isomer, unassigned) [Example 151, (R)-4-amino-N-(5-(1-aminobut-3-yn-1-yl)pyridin-3-yl)-1-(2,6-dichloro-4-ethoxyphenyl)-6-oxo-1,6-dihydropyrimidine-5-carboxamide or (S)-4-amino-N-(5-(1-aminobut-3-yn-1-yl)pyridin-3-yl)-1-(2,6-dichloro-4-ethoxyphenyl)-6-oxo-1,6-dihydropyrimidine-5-carboxamide]: the IC50 is 14.9 nM on human GSK3α, 7.1 nM against GSK3A, 406 nM at GSK3B [1] and 501 nM on GSK3B [2].
